Measurements published in patent publication US20130178413A1, “HCV NS3 PROTEASE INHIBITORS” (priority 2010, published 2013).
Like-named read-outs stand apart in the source and are kept apart here.

Experiments:
[1] = molecular target: NS3/4A protease gt 1b (Hepatitis C virus genotype 1b, UniProt P26663); assay: HCV NS3 protease time-resolved fluorescence (TRF) assay, NS3/4A inhibitory activity (Ki), gt 1b; type: biochemical; conditions: genotype 1b NS3/4A; read-out: Enzyme Activity gt 1b Ki
Procedure, shortened: (§1)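 NS3/4A protease (gt 1b, 1b A156V, 3a) pre-incubated 30 min with inhibitor in 50 mM HEPES pH 7.5, 150 mM NaCl, 15% glycerol, 0.15% Triton X-100, 10 mM DTT, 0.1% PEG 8000; 100 nM TRF peptide substrate, 1 h at room temperature, quenched with MES pH 5.5. Time-resolved fluorescence (ex 340/em 615 nm); four-parameter IC50 converted to Ki via IC50=Ki(1+[S]/KM).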

[2] = molecular target: NS3/4A protease gt 1b A156V (Hepatitis C virus genotype 1b, UniProt P26663, A1182V); assay: HCV NS3 protease time-resolved fluorescence (TRF) assay, NS3/4A inhibitory activity (Ki), gt 1b A156V mutant; type: biochemical, hepatitis C virus (HCV)
Procedure, shortened: as §1

[3] = molecular target: NS3/4A protease gt 3a (Hepatitis C virus genotype 3a, UniProt Q81258); assay: HCV NS3 protease time-resolved fluorescence (TRF) assay, NS3/4A inhibitory activity (Ki), gt 3a; type: biochemical; conditions: genotype 3a NS3/4A; read-out: Enzyme Activity gt 3a Ki
Procedure, shortened: as §1

[4] = tested on: gt 1b Replicon; assay: HCV replicon assay, compound inhibitory potency (Replicon EC50); type: cell-based; conditions: Hepatitis C virus, GT1B
Procedure, shortened: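 Stable replicon-harboring cells (neomycin phosphotransferase, some luciferase:Neor fusion) plated with compound dilution series without G418, incubated 24-48 h. Read-out: RNA by 32P-probe protection or TaqMan normalized to cyclophilin A RNA, or luciferase activity; EC50 as percent of DMSO control, four-parameter fit.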

[5] = 10% Fetal Bovine Serum, read-out: gt 1b Replicon EC50 10% FBS
[6] = 50% Normal Human Serum, read-out: gt 1b Replicon EC50 50% NHS

| Compound | Ki [1] [nM] | Ki [2] [nM] | Ki [3] [nM] | EC50 [4, 5] [nM] | EC50 [4, 6] [nM] |
| --- | --- | --- | --- | --- | --- |
| C=C[C@@H]1C[C@]1(NC(=O)[C@@H]1C[C@@H]2CN1C(=O)[C@H](C(C)(C)C)NC(=O)O[C@]1(C)C[C@H]1CCCCCc1nc3ccc(OC)cc3cc1O2)C(=O)NS(=O)(=O)C1CC1 [Example I-10, (1aR,5S,8S,10R,22aR)-5-tert-butyl-N-{(1R,2S)-1-[(cyclopropylsulfonyl)carbamoyl]-2-ethenylcyclopropyl}-14-methoxy-1a-methyl-3,6-dioxo-1,1a,3,4,5,6,9,10,18,19,20,21,22, 22a-tetradecahydro-8H-7,10-methanocyclo propa[18,19][1,10,3,6] dioxadiazacyclonona decino[12,11-b] quinoline-8-carboxamide] | 0.02 | 4.2 | 0.2 | 4 | 10 |
| C=C[C@@H]1C[C@]1(NC(=O)[C@@H]1C[C@@H]2CN1C(=O)[C@H](C1CCCC1)NC(=O)O[C@]1(C)C[C@H]1CCCCCc1cccc3c1CN(C3)C(=O)O2)C(=O)NS(=O)(=O)C1CC1 [Example I-13, (1aR,5S,8S,10R,23aR)-5-cyclopentyl-N-{(1R,2S)-1-[(cyclopropylsulfonyl)carbamoyl]-2-ethenylcyclopropyl}-1a-methyl-3,6,12-trioxo-1a,3,4,5,6,9,10, 14,19,20,21,22,23,23a-tetradecahydro-1H,8H-7,10:13,15-dimethano cyclopropa[n][4,13,2,8, 11]benzodioxatriaza cyclodocosine-8(12H)-carboxamide] | 0.02 | 0.4 | 32.9 | 4 | 16 |
| C=C[C@@H]1C[C@]1(NC(=O)[C@@H]1C[C@@H]2CN1C(=O)[C@H](C1CCCC1)NC(=O)O[C@]1(C)C[C@H]1CCCCCc1nc3cccc(OC)c3nc1O2)C(=O)NS(=O)(=O)C1(C)CC1 [Example I-1, (1R,18R,20R,24S,27S)-24-Cyclopentyl-6-methoxy-20-methyl-N-[(1R,2S)-1-({[(1-methylcyclopropyl)sulfonyl]amino}carbonyl)-2-vinylcyclopropyl]-22,25-dioxo-2,21-dioxa-4,11,23,26-tetraazapentacyclo[24.2.1.0^3,12.0^5,10.0^18,20]nonacosa-3,5,7,9,11-pentaene-27-carboxamide] | 0.04 | 1 | 1.6 | 2 | 7.6 |
| CC[C@@H]1C[C@]1(NC(=O)[C@@H]1C[C@@H]2CN1C(=O)[C@H](C(C)(C)C)NC(=O)O[C@]1(C)C[C@H]1CCCCCc1cccc3c1CN(C3)C(=O)O2)C(=O)NS(=O)(=O)C1CC1 [Example I-7, (1aR,5S,8S,10R,23aR)-5-tert-butyl-N-{(1R,2R)-1-[(cyclopropylsulfonyl)carbamoyl]-2-ethylcyclopropyl}-1a-methyl-3,6,12-trioxo-1a,3,4,5,6,9,10,14,19, 20,21,22,23,23a-tetradecahydro-1H,8H-7,10:13,15-dimethano cyclopropa[n][4,13,2,8, 11]benzodioxatriaza cyclodocosine-8(12H)-carboxamide] | 0.02 | 2.2 | 8.7 | 4 | 27 |
| C=C[C@@H]1C[C@]1(NC(=O)[C@@H]1C[C@@H]2CN1C(=O)[C@H](C1CCCC1)NC(=O)O[C@]1(C)C[C@H]1CCCCCc1nc3cccc(OC)c3nc1O2)C(=O)NS(=O)(=O)C1CC1 [Example I-30, (1aR,5S,8S,10R,22aR)-5-cyclopentyl-N-{(1R,2S)-1-[(cyclopropylsulfonyl)carbamoyl]-2-ethenylcyclopropyl}-13-methoxy-1a-methyl-3,6-dioxo-1,1a,3,4,5,6,9,10,18,19,20,21,22,22a-tetradecahydro-8H-7,10-methanocyclo propa[18,19][1,10,3,6] dioxadiazacyclonona decino[11,12-b]quinoxaline-8-carboxamide] | 0.02 | 1.9 | 2.2 | 1 | 5 |
| C=C[C@@H]1C[C@]1(NC(=O)[C@@H]1C[C@@H]2CN1C(=O)[C@H](C1CCCC1)NC(=O)O[C@]1(C)C[C@H]1CC/C=C/Cn1c(nc3cc(C)ccc3c1=O)O2)C(=O)NS(=O)(=O)C1(C)CC1 [Example I-24, (1aR,5S,8S,10R,20E,23aR)-5-cyclopentyl-N-[(1R,2S)-2-ethenyl-1-{[(1-methylcyclopropyl)sulfonyl]carbamoyl}cyclopropyl]-1a,14-dimethyl-3,6,17-trioxo-1,1a,3,4,5,6,9,10,19,22,23,23a-dodecahydro-8H,17H-7,10-methanocyclo propa[18,19][1,10,3,6,12] dioxatriazacyclo nonadecino[11,12-b]quinazoline-8-carboxamide] | 0.02 | 0.9 | 0.7 | 2 | 8.5 |
| C=C[C@@H]1C[C@]1(NC(=O)[C@@H]1C[C@@H]2CN1C(=O)[C@H](C1CCCC1)NC(=O)O[C@]1(C)C[C@H]1CCCCCn1c(nc3cc(C)ccc3c1=O)O2)C(=O)NS(=O)(=O)C1CC1 [Example I-27, (1aR,5S,8S,10R,23aR)-5-cyclopentyl-N-{(1R,2S)-1-[(cyclopropylsulfonyl)carbamoyl]-2-ethenylcyclopropyl}-1a,14-dimethyl-3,6,17-trioxo-1,1a,3,4,5,6,9, 10,19,22,21,22,23,23a-tetradecahydro-8H,17H-7,10-methanocyclopropa[18, 19][1,10,3,6,12]dioxatri azacyclononadecino [11,12-b]quinazoline-8-carboxamide] | 0.04 | 4.1 | 2.8 | 2 | 6 |
| C=C[C@@H]1C[C@]1(NC(=O)[C@@H]1C[C@@H]2CN1C(=O)[C@H](C1CCCC1)NC(=O)O[C@]1(C)C[C@H]1CC/C=C/Cc1c(nc3ccccc3c1O)O2)C(=O)NS(=O)(=O)C1CC1 [Example I-4, (1R,14E,18R,20R,24S,27S)-24-Cyclopentyl-N-((1R,2S)-1-{[(cyclopropylsulfonyl)amino]carbonyl}-2-vinylcyclopropyl)-11-hydroxy-20-methyl-22,25-dioxo-2,21-dioxa-4,23,26-triazapentacyclo[24.2.1.0^3,12.0^5,10.0^18,20]nonacosa-3,5,7,9,11,14-hexaene-27-carboxamide] | 0.04 | 0.9 | 0.7 | 7 | 17 |
